According to patent US20040043959A1, “Combination therapies for treating methylthioadenosine phosphorylase deficient cells” (priority 2002, published 2004):

Target: T1, Human MTAP (Homo sapiens, UniProt Q13126)
T1 construct: six-histidine tag (His6) (N); made in house; host or cells: E. coli BL21 DE3
T1 sequence (Q13126 1-283): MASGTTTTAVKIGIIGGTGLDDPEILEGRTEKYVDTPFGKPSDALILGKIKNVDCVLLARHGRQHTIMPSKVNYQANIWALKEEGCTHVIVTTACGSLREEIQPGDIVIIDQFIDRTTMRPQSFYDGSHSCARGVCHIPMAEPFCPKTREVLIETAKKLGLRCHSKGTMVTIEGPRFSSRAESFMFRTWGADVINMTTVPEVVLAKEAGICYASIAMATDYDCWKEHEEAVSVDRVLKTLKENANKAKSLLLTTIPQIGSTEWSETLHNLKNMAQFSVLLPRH
Test: MTAP substrate assay, coupled spectrophotometric (adenine, xanthine oxidase)
Type: biochemical
Conditions: 2 nM MTAP; for activity at 50 µM: 10 min, compound 50 uM, relative to MTA at 50 uM, read-out: MT-A—50: initial velocity as a percentage of the initial velocity with MTA as substrate; for MT-A—10: initial velocity as a percentage of the initial velocity with MTA as substrate: compound 10 uM, relative to MTA at 10 uM
Procedure: An enzymatic assay to determine the activity of MTAP against a given substrate was performed. Human MTAP containing an N-terminal six-histidine tag was expressed in E. coli BL21 DE3 cells. The protein was purified to homogeneity by Ni2+ affinity chromatography. Enzymatic activity was measured using a coupled spectrophotometric assay designed to monitor the reaction product adenine (Savarese, T. M., Crabtree, G. W., and Parks, R. E. Jr., (1980) Biochem. Pharmacol. 30, 189-199). Various concentrations of the indicated 5′-deoxymethylthio adenosine (MTA) or substrate were incubated in assay buffer (40 mM potassium phosphate buffer, 1 mM, and DTT 0.8 units/ml xanthine oxidase coupling enzyme) for 5 minutes at 37° C. The reaction was initiated by the addition of MTAP. The exact concentration of enzyme used varied for each substrate tested and ranged from 2 nM to 500 nM. Activity as a function of enzyme concentration was determined for each substrate tested to ensure that the appropriate enzyme concentration was used. Activity was detected by continuous monitoring of absorbance at 305 nm for 10 minutes (ΔE=15,500 M^−1).
Library compounds (10 and 50 uM) were tested using the assay described above with 2 nM MTAP enzyme. The resultant initial velocities are reported as a percentage of the initial velocity observed when MTA is the substrate. MTA controls, 10 and 50 uM concentrations, were run on each plate alongside the library compounds.

SMILES	activity at 50 µM	MT-A—10: initial velocity as a percentage of the initial velocity with MTA as substrate
CCc1ccccc1SC[C@H]1O[C@@H](n2cnc3c(N)ncnc32)[C@H](O)[C@@H]1O [2(G)(26), (2R, 3R, 4S, 5S)-2-(6-amino-9H-purin-9-yl)-5-{[(2-ethylphenyl)-thio]methyl}tetrahydro-furan-3,4-diol]	7%	6%
Nc1ncnc2c1ncn2[C@@H]1O[C@H](CSc2ccccc2O)[C@@H](O)[C@H]1O [2(G)(27), (2R, 3R, 4S, 5S)-2-(6-amino-9H-purin-9-yl)-5-{[(2-hydroxyphenyl)-thio]methyl}tetrahydro-furan-3,4-diol]	23%	7%
Cc1ccc(C)c(SC[C@H]2O[C@@H](n3cnc4c(N)ncnc43)[C@H](O)[C@@H]2O)c1 [2(G)(28)]	4%	6%
Nc1ncnc2c1ncn2[C@@H]1O[C@H](CSc2cccc(Br)c2)[C@@H](O)[C@H]1O [2(G)(29), (2R, 3R, 4S, 5S)-2-(6-amino-9H-purin-9-yl)-5-{[(3-bromophenyl)-thio]methyl}tetrahydro-furan-3,4-diol]	19%	21%
C#CCSc1nnc(SC[C@H]2O[C@@H](n3cnc4c(N)ncnc43)[C@H](O)[C@@H]2O)s1 [2(G)(30), (2R, 3R, 4S, 5S)-2-(6-amino-9H-purin-9-yl)-5-({[5-(prop-2-yn-1-ylthio)-1,3,4-thiodiazol-2-yl]thio}methyl)tetra-hydrofuran-3,4-diol]	12%	11%
Cn1c(O)nnc1SC[C@H]1O[C@@H](n2cnc3c(N)ncnc32)[C@H](O)[C@@H]1O [2(G)(31), (2R, 3R, 4S, 5S)-2-(6-amino-9H-purin-9-yl)-5-{[(5-hydroxy-4-methyl-4H-1,2,4-triazol-3-yl)-thio]methyl}tetrahydro-furan-3,4-diol]	50%	46%
Cc1cc(C)n2nc(SC[C@H]3O[C@@H](n4cnc5c(N)ncnc54)[C@H](O)[C@@H]3O)nc2n1 [2(G)(32), (2R, 3R, 4S, 5S)-2-(6-amino-9H-purin-9-yl)-5-{[(5,7-dimethyl[1,2,4]-triazolo[1,5-a]pyrimidin-2-yl)thio]methyl}tetra-hydrofuran-3,4-diol]	7%	6%
Nc1ncnc2c1ncn2[C@@H]1O[C@H](CSc2nccc(C(F)(F)F)n2)[C@@H](O)[C@H]1O [2(G)(33), (2R, 3R, 4S, 5S)-2-(6-amino-9H-purin-9-yl)-5-({[4-(trifluoromethyl)-pyr-imidin-2-yl]thio}methyl)-tetrahydrofuran-3,4-diol]	36%	28%
Cc1ccc(C(C)(C)C)cc1SC[C@H]1O[C@@H](n2cnc3c(N)ncnc32)[C@H](O)[C@@H]1O [2(G)(34), (2R, 3R, 4S, 5S)-2-(6-amino-9H-purin-9-yl)-5-{[(5-tert-butyl-2-methyl-phenyl)thio]methyl}-tetrahydrofuran-3,4-diol]	3%	2%
CC(C)c1ccc(SC[C@H]2O[C@@H](n3cnc4c(N)ncnc43)[C@H](O)[C@@H]2O)cc1 [2(G)(35), (2R, 3R, 4S, 5S)-2-(6-amino-9H-purin-9-yl)-5-{[(4-isopropylphenyl)-thio]methyl}tetrahydro-furan-3,4-diol]	11%	15%
CCOC(=O)c1cnc(SC[C@H]2O[C@@H](n3cnc4c(N)ncnc43)[C@H](O)[C@@H]2O)nc1N [2(G)(36)]	40%	35%
Cc1occc1SC[C@H]1O[C@@H](n2cnc3c(N)ncnc32)[C@H](O)[C@@H]1O [2(G)(37), (2R, 3R, 4S, 5S)-2-(6-amino-9H-purin-9-yl)-5-{[(2-methyl-3-furyl)thio]methyl}tetra-hydrofuran-3,4-diol]	26%	10%
Nc1ncnc2c1ncn2[C@@H]1O[C@H](CSCC(F)(F)F)[C@@H](O)[C@H]1O [2(G)(38), (2R, 3R, 4S, 5S)-2-(6-amino-9H-purin-9-yl)-5-{[(2,2,2-trifluoroethyl)-thio]methyl}tetrahydro-furan-3,4-diol]	32%	30%
CC(C)(C)OC(=O)NCCSC[C@H]1O[C@@H](n2cnc3c(N)ncnc32)[C@H](O)[C@@H]1O [2(G)(39), tert-butyl [2-({[(2S, 3S, 4R, 5R)-5-(6-amino-9H-purin-9-yl)-3,4-dihydroxytetrahydro-furan-2-yl]methyl}thio)-ethyl]carbamate]	8%	7%
Cc1cc(=O)oc2cc(SC[C@H]3O[C@@H](n4cnc5c(N)ncnc54)[C@H](O)[C@@H]3O)ccc12 [2(G)(40), 7-({[(2S, 3S, 4R, 5R)-5-(6-amino-9H-purin-9-yl)-3,4-dihydroxytetrahydro-furan-2-yl]methyl}thio)-4-methyl-2H-chromen-2-one]	10%	6%
Nc1ncnc2c1ncn2[C@@H]1O[C@H](CSc2ncc(C(F)(F)F)cc2Cl)[C@@H](O)[C@H]1O [2(G)(41), (2R, 3R, 4S, 5S)-2-(6-amino-9H-purin-9-yl)-5-({[3-chloro-5-(trifluoromethyl)pyridin-yl]thio}methyl)tetra-hydrofuran-3,4-diol]	7%	7%
Nc1ncnc2c1ncn2[C@@H]1O[C@H](CSc2ccc3ccccc3n2)[C@@H](O)[C@H]1O [2(G)(42), (2R, 3R, 4S, 5S)-2-(6-amino-9H-purin-9-yl)-5-[(quinolin-2-ylthio)methyl]-tetrahydrofuran-3,4-diol]	47%	38%
Cc1cc(C)c(C#N)c(SC[C@H]2O[C@@H](n3cnc4c(N)ncnc43)[C@H](O)[C@@H]2O)n1 [2(G)(43), 2-({[(2S, 3S, 4R, 5R)-5-(6-amino-9H-purin-9-yl)-dihydroxytetrahydro-furan-2-yl]methyl}thio)-4,6-dimethylnicotino-nitrile]	7%	5%
C=CCSC[C@H]1O[C@@H](n2cnc3c(N)ncnc32)[C@H](O)[C@@H]1O [2(G)(44), (2R, 3R, 4S, 5S)-2-(6-amino-9H-purin-9-yl)-5-[(allythio)methyl]tetra-hydrofuran-3,4-diol]	82%	77%
CC(C)SC[C@H]1O[C@@H](n2cnc3c(N)ncnc32)[C@H](O)[C@@H]1O [2(G)(45), (2R, 3R, 4S, 5S)-2-(6-amino-9H-purin-9-yl)-5-[(isopropylthio)methyl]-tetrahydrofuran-3,4-diol]	57%	53%
Cc1cccc2[nH]c(SC[C@H]3O[C@@H](n4cnc5c(N)ncnc54)[C@H](O)[C@@H]3O)nc12 [2(G)(46), (2R, 3R, 4S, 5S)-2-(6-amino-9H-purin-9-yl)-5-{[(4-methyl-1H-benzimidazol-2-yl)-thio]methyl}tetrahydro-furan-3,4-diol]	45%	42%
Nc1ncnc2c1ncn2[C@@H]1O[C@H](CSc2nc3cnccc3[nH]2)[C@@H](O)[C@H]1O [2(G)(47), (2R, 3R, 4S, 5S)-2-(6-amino-9H-purin-9-yl)-5-[(1H-imidazo[4,5-c]-pyridin-2-ylthio)methyl]-tetrahydrofuran-3,4-diol]	50%	49%
Cc1ccc2[nH]c(SC[C@H]3O[C@@H](n4cnc5c(N)ncnc54)[C@H](O)[C@@H]3O)nc2c1 [2(G)(48), (2R, 3R, 4S, 5S)-2-(6-amino-9H-purin-9-yl)-5-{[(5-methyl-1H-benzimidazol-2-yl)thio]-methyl}tetrahydro-furan-3,4-diol]	5%	3%
Nc1ncnc2c1ncn2[C@@H]1O[C@H](CSc2nc(O)c3cn[nH]c3n2)[C@@H](O)[C@H]1O [2(G)(49), (2R, 3R, 4S, 5S)-2-(6-amino-9H-purin-9-yl)-5-{[(4-hydroxy-1H-pyrazolo[3,4-d]pyrimidin-6-yl)thio]methyl}tetra-hydrofuran-3,4-diol]	46%	52%
